Source: US20240294541A1, “COMPOUNDS CONSTITUTING C20-MODIFIED SALINOMYCIN DERIVATIVES, A METHOD FOR OBTAINING THE SAME, A COMPOSITION CONTAINING THE SAME AND A USE OF SAID COMPOUNDS” (FILECLO SPOLKA Z OGRANICZONA ODPOWIEDZIALNOSCIA, priority 2021, published 2024)

How the values were obtained:
Type in all cases: cell-based
[1] = tested on: MIA PaCa-2 (human pancreatic cancer); assay: cells; conditions: for IC50: Homo sapiens, MIA PaCa-2, 72 h with compound, SRB, n/a = non-active compound, read-out: MIA PaCa-2 IC50; for MIA PaCa-2 SI: selectivity coefficient vs normal BALB/3T3 cells
[2] = tested on: A2780Cis (cisplatin-resistant human ovarian cancer); assay: In vitro cytotoxicity, SRB assay, A2780Cis; conditions: for IC50: Homo sapiens, A2780cis, 72 h, read-out: A2780Cis IC50 (nM)
[3] = tested on: BALB/3T3 (normal mouse fibroblasts); assay: In vitro cytotoxicity, SRB assay, normal BALB/3T3 fibroblasts; conditions: Mus musculus, BALB/3T3; normal cells; 72 h with compound, SRB; n/a = non-active compound; read-out: BALB/3T3 IC50
[4] = tested on: NCI-H23 (human lung cancer); assay: In vitro cytotoxicity, SRB assay, NCI-H23; conditions: for IC50: Homo sapiens, NCI-H23, 72 h with compound, SRB, n/a = non-active compound, read-out: NCI-H23 IC50; for NCI-H23 SI: selectivity coefficient vs normal BALB/3T3 cells
A375 (human melanoma) = assay: In vitro cytotoxicity, SRB assay, A375; conditions: for IC50: Homo sapiens, A-375, 72 h with compound, SRB, n/a = non-active compound, read-out: A375 IC50; for A375 SI: selectivity coefficient vs normal BALB/3T3 cells
Hs294T (human melanoma) = assay: cells; conditions: for IC50: Homo sapiens, Hs 294T, 72 h with compound, SRB, n/a = non-active compound, read-out: Hs294T IC50; for Hs294T SI: selectivity coefficient vs normal BALB/3T3 cells
[5] = tested on: PLC/PRF/5 (human liver cancer); assay: cells; conditions: for IC50: Homo sapiens, PLC-PRF-5, 72 h with compound, SRB, n/a = non-active compound, read-out: PLC/PRF/5 IC50; for PLC/PRF/5 SI: selectivity coefficient vs normal BALB/3T3 cells
[6] = tested on: A2780 (human ovarian cancer); assay: In vitro cytotoxicity, SRB assay, A2780; conditions: for IC50: Homo sapiens, A2780, 72 h with compound, SRB, n/a = non-active compound, read-out: A2780 IC50; for A2780 SI: selectivity coefficient vs normal BALB/3T3 cells
[7] = tested on: SNU-16 (human gastric cancer); assay: cells; conditions: for IC50: Homo sapiens, SNU-16, 72 h with compound, MTT, n/a = non-active compound, read-out: SNU-16 IC50; for SNU-16 SI: selectivity coefficient vs normal BALB/3T3 cells
[8] = tested on: PFSK-1 (malignant primitive neuroectodermal tumour); assay: In vitro cytotoxicity, SRB assay, PFSK-1; conditions: for IC50: Homo sapiens, PFSK-1, 72 h with compound, SRB, n/a = non-active compound, read-out: PFSK-1 IC50; for PFSK-1 SI: selectivity coefficient vs normal BALB/3T3 cells
[9] = tested on: KG-1 (human acute myeloid leukaemia); assay: In vitro cytotoxicity, MTT assay, KG-1; conditions: for IC50: Homo sapiens, 72 h with compound, MTT, n/a = non-active compound; for KG-1 SI: selectivity coefficient vs normal BALB/3T3 cells

| SMILES | IC50 [1] | MIA PaCa-2 SI [1] | A2780Cis RI [2] | A2780Cis SI [2] | IC50 [2] | IC50 [3] | IC50 [4] | NCI-H23 SI [4] | IC50 (A375 (human melanoma)) | A375 SI (A375 (human melanoma)) | IC50 (Hs294T (human melanoma)) | Hs294T SI (Hs294T (human melanoma)) | IC50 [5] | PLC/PRF/5 SI [5] | IC50 [6] | A2780 SI [6] | IC50 [7] | SNU-16 SI [7] | IC50 [8] | PFSK-1 SI [8] | further results |
| --- | --- | --- | --- | --- | --- | --- | --- | --- | --- | --- | --- | --- | --- | --- | --- | --- | --- | --- | --- | --- | --- |
| CCCNC(=S)N[C@@H]1C=C[C@]2(O[C@H]([C@@H](CC)C(=O)[C@@H](C)[C@@H](O)[C@H](C)[C@@H]3O[C@@H]([C@@H](CC)C(=O)O)CC[C@@H]3C)[C@@H](C)C[C@H]2C)O[C@@]12CC[C@@](C)([C@H]1CC[C@](O)(CC)[C@H](C)O1)O2 [FLC-00349-1] | 66.3 nM | 1.0 | 1.0 | 14.8 | 4.56 nM | 67.5 nM | 75.2 nM | 0.9 | 113 nM | 0.6 | 108 nM | 0.6 | 24.1 nM | 2.8 | 4.5 nM | 15.0 | 20.7 nM | 3.3 | 27.6 nM | 2.4 | IC50 [9]: 24.7 nM; KG-1 SI [9]: 2.7 |
| CCCCCCCNC(=O)N[C@@H]1C=C[C@]2(O[C@H]([C@@H](CC)C(=O)[C@@H](C)[C@@H](O)[C@H](C)[C@@H]3O[C@@H]([C@@H](CC)C(=O)O)CC[C@@H]3C)[C@@H](C)C[C@H]2C)O[C@@]12CC[C@@](C)([C@H]1CC[C@](O)(CC)[C@H](C)O1)O2 [FLC-00350-1] | 37.4 nM | 2.8 | 0.9 | 44.9 | 2.3 nM | 103 nM | 101 nM | 1.0 | 251 nM | 0.4 | 419 nM | 0.2 | 23 nM | 4.5 | 2.46 nM | 42.0 | 18.2 nM | 5.7 | 7.25 nM | 14.2 | IC50 [9]: 35.9 nM; KG-1 SI [9]: 2.9 |
| CC[C@@H](C(=O)[C@@H](C)[C@@H](O)[C@H](C)[C@@H]1O[C@@H]([C@@H](CC)C(=O)O)CC[C@@H]1C)[C@H]1O[C@]2(C=C[C@@H](NC(=O)NC3CCCC3)[C@]3(CC[C@@](C)([C@H]4CC[C@](O)(CC)[C@H](C)O4)O3)O2)[C@H](C)C[C@@H]1C [FLC-00351-1] | 22 nM | 3.0 | 1.2 | 125.6 | 0.53 nM | 66.6 nM | 112 nM | 0.6 | 104 nM | 0.6 | 360 nM | 0.2 | 22.3 nM | 3.0 | 0.45 nM | 148.7 | 24.5 nM | 2.7 | 10.7 nM | 6.2 | IC50 [9]: 23.7 nM; KG-1 SI [9]: 2.8 |
| CCOC(=O)CNC(=S)N[C@@H]1C=C[C@]2(O[C@H]([C@@H](CC)C(=O)[C@@H](C)[C@@H](O)[C@H](C)[C@@H]3O[C@@H]([C@@H](CC)C(=O)O)CC[C@@H]3C)[C@@H](C)C[C@H]2C)O[C@@]12CC[C@@](C)([C@H]1CC[C@](O)(CC)[C@H](C)O1)O2 [FLC-00352-1] | 50.9 nM | 2.3 | 1.8 | 30.4 | 3.77 nM | 115 nM | 234 nM | 0.5 | 459 nM | 0.3 | 416 nM | 0.3 | 32.9 nM | 3.5 | 2.14 nM | 53.8 | 52.8 nM | 2.2 | 45.2 nM | 2.5 | IC50 [9]: 30 nM; KG-1 SI [9]: 3.8 |
| C=CCNC(=O)N[C@@H]1C=C[C@]2(O[C@H]([C@@H](CC)C(=O)[C@@H](C)[C@@H](O)[C@H](C)[C@@H]3O[C@@H]([C@@H](CC)C(=O)O)CC[C@@H]3C)[C@@H](C)C[C@H]2C)O[C@@]12CC[C@@](C)([C@H]1CC[C@](O)(CC)[C@H](C)O1)O2 [FLC-00353-1] | 28.9 nM | 7.8 | 1.1 | 180.6 | 1.26 nM | 227 nM | 410 nM | 0.6 | 107 nM | 2.1 | 612 nM | 0.4 | 31.5 nM | 7.2 | 1.14 nM | 199.8 | 88.6 nM | 2.6 | 13.4 nM | 16.9 | IC50 [9]: 34.3 nM; KG-1 SI [9]: 6.6 |
| CCNC(=O)N[C@@H]1C=C[C@]2(O[C@H]([C@@H](CC)C(=O)[C@@H](C)[C@@H](O)[C@H](C)[C@@H]3O[C@@H]([C@@H](CC)C(=O)O)CC[C@@H]3C)[C@@H](C)C[C@H]2C)O[C@@]12CC[C@@](C)([C@H]1CC[C@](O)(CC)[C@H](C)O1)O2 [FLC-00358-1] | 45.6 nM | 4.9 | 0.7 | 98.1 | 2.27 nM | 223 nM | 113 nM | 2.0 | 208 nM | 1.1 | 1640 nM | 0.1 | 52.8 nM | 4.2 | 3.32 nM | 67.0 | 67.9 nM | 3.3 | 32.3 nM | 6.9 | IC50 [9]: 67.7 nM; KG-1 SI [9]: 3.3 |
| CC[C@@H](C(=O)[C@@H](C)[C@@H](O)[C@H](C)[C@@H]1O[C@@H]([C@@H](CC)C(=O)O)CC[C@@H]1C)[C@H]1O[C@]2(C=C[C@@H](NC(=O)Nc3ccc(F)cc3F)[C@]3(CC[C@@](C)([C@H]4CC[C@](O)(CC)[C@H](C)O4)O3)O2)[C@H](C)C[C@@H]1C [FLC-00359-1] | 37.7 nM | 1.9 | 0.7 | 65.3 | 1.12 nM | 73 nM | 148 nM | 0.5 | 228 nM | 0.3 | 212 nM | 0.3 | 38.6 nM | 1.9 | 1.62 nM | 45.1 | 9.57 nM | 7.6 | 19.4 nM | 3.8 | IC50 [9]: 13.1 nM; KG-1 SI [9]: 5.6 |
